Key:
[1] = Selectivity index, ratio IC50 for rat L6 cells to IC50 for multidrug-resistant Plasmodium falciparum K1 infected in human red blood cells; format: functional
Plasmodium falciparum [2] = test: microbe, parasite or virus in culture; conditions: K1
Description: (§1) Antimalarial activity against multidrug-resistant Plasmodium falciparum K1 infected in human red blood cells assessed as 3H-hypoxanthine incorporation after 48 hrs by liquid scintillation counting

L6 = test: Cytotoxicity at rat L6 cells after 72 hrs by microplate alamar blue assay; format: cell-based
[3] = Distribution coefficient, log D of the compound at pH 7.4; format: physicochemical; conditions: octanol/water
Plasmodium falciparum [4] = system: Plasmodium falciparum
Description: as §1

Plasmodium berghei = test: Antimalarial activity against GFP-transfected Plasmodium berghei strain ANKA infected in NMRI mouse assessed as reduction in parasitemia at 50 mg/kg/day, ip administered for 4 consecutive days measured 24 hrs after last treatment by FACS analysis relative to control; format: functional; design: scale not given: the % may be the effect or the level left; conditions: route intraperitoneal

SMILES: CN(C)CCNc1cc(-c2ccc(C(F)(F)F)cc2)c(C#N)c2nc3ccccc3n12
- Ratio IC50 [1]: >1600
- IC50 (Plasmodium falciparum [2]): 0.13 µM
- IC50 (L6; Rattus norvegicus, L6, 72 h): > 210 µM
- logD [3]: 2.45

SMILES: CCN(CC)CCNc1cc(-c2cccc(C(F)(F)F)c2)c(C#N)c2nc3ccccc3n12
- Ratio IC50 [1]: 243
- IC50 (Plasmodium falciparum [2]): 0.42 µM
- IC50 (L6; Rattus norvegicus, L6, 72 h): 102 µM
- logD [3]: 2.94

SMILES: CN(C)CCCNc1cc(-c2cccc(C(F)(F)F)c2)c(C#N)c2nc3ccccc3n12.Cl.Cl
- IC50 (Plasmodium falciparum [4]): 0.49 µM
- IC50 (L6; l6): 19.2 µM
- Activity (Plasmodium berghei): 0%

SMILES: N#Cc1c(-c2ccc(C(F)(F)F)cc2)cc(NCCN2CCOCC2)n2c1nc1ccccc12
- Ratio IC50 [1]: 68
- IC50 (Plasmodium falciparum [2]): 0.49 µM
- IC50 (L6; Rattus norvegicus, L6, 72 h): 33.3 µM
- logD [3]: 3.72

SMILES: N#Cc1c(-c2ccc(C(F)(F)F)cc2)cc(NCCN)n2c1nc1ccccc12
- Ratio IC50 [1]: 3.4
- IC50 (Plasmodium falciparum [2]): 1.49 µM
- IC50 (L6; Rattus norvegicus, L6, 72 h): 5.11 µM
- logD [3]: 1.8

SMILES: N#Cc1c(-c2ccc(C(F)(F)F)cc2)cc(NCCN2CCCCC2)n2c1nc1ccccc12
- Ratio IC50 [1]: 3581
- IC50 (Plasmodium falciparum [2]): 0.054 µM
- IC50 (L6; Rattus norvegicus, L6, 72 h): 193 µM
- logD [3]: 3.78

SMILES: CCN(CC)CCCNc1cc(-c2ccc(F)cc2)c(C#N)c2nc3ccccc3n12
- Ratio IC50 [1]: 122
- IC50 (Plasmodium falciparum [2]): 0.71 µM
- IC50 (L6; Rattus norvegicus, L6, 72 h): 86.6 µM
- logD [3]: 1.93

SMILES: CCN(CC)CCNc1cc(-c2ccc(Cl)cc2)c(C#N)c2nc3ccccc3n12
- Ratio IC50 [1]: 683
- IC50 (Plasmodium falciparum [2]): 0.06 µM
- IC50 (L6; Rattus norvegicus, L6, 72 h): 41 µM
- logD [3]: 2.54

SMILES: CN(C)CCCNc1cc(-c2ccc(F)cc2)c(C#N)c2nc3ccccc3n12
- Ratio IC50 [1]: 43
- IC50 (Plasmodium falciparum [2]): 0.27 µM
- IC50 (L6; Rattus norvegicus, L6, 72 h): 11.6 µM
- logD [3]: 1.45

SMILES: COc1cc([C@@H]2c3cc4c(cc3[C@H](O)[C@H]3COC(=O)[C@H]23)OCO4)cc(OC)c1OC [PODOFILOX]
- IC50 (L6; Rattus norvegicus, L6, 72 h): 0.009 µM

SMILES: CN(C)CCNc1cc(-c2ccccc2)c(C#N)c2nc3ccccc3n12
- Ratio IC50 [1]: >50
- IC50 (Plasmodium falciparum [2]): 1.49 µM
- IC50 (L6; Rattus norvegicus, L6, 72 h): > 80 µM
- logD [3]: 1.48

SMILES: N#Cc1c(-c2ccc(C(F)(F)F)cc2)cc(NCCCN2CCOCC2)n2c1nc1ccccc12
- Ratio IC50 [1]: 80.6
- IC50 (Plasmodium falciparum [2]): 1.22 µM
- IC50 (L6; Rattus norvegicus, L6, 72 h): 98.3 µM
- logD [3]: 3.79

SMILES: CCN(CC)CCCNc1cc(-c2ccccc2)c(C#N)c2nc3ccccc3n12
- Ratio IC50 [1]: >150
- IC50 (Plasmodium falciparum [2]): 1.53 µM
- IC50 (L6; Rattus norvegicus, L6, 72 h): > 230 µM
- logD [3]: 2

SMILES: CCNCCN(CC)c1cc(-c2ccc(C(F)(F)F)cc2)c(C#N)c2nc3ccccc3n12
- Ratio IC50 [1]: 22.9
- IC50 (Plasmodium falciparum [2]): 0.94 µM
- IC50 (L6; Rattus norvegicus, L6, 72 h): 21.5 µM
- logD [3]: 3.52

SMILES: CCN(CC)CCCNc1cc(-c2cccc(F)c2)c(C#N)c2nc3ccccc3n12
- Ratio IC50 [1]: 121
- IC50 (Plasmodium falciparum [2]): 0.46 µM
- IC50 (L6; Rattus norvegicus, L6, 72 h): 55.7 µM
- logD [3]: 2.02

SMILES: CN(C)CCNc1cc(-c2cccc(C(F)(F)F)c2)c(C#N)c2nc3ccccc3n12
- Ratio IC50 [1]: 24.6
- IC50 (Plasmodium falciparum [2]): 0.29 µM
- IC50 (L6; Rattus norvegicus, L6, 72 h): 7.14 µM
- logD [3]: 2.45

SMILES: N#Cc1c(-c2cccc(C(F)(F)F)c2)cc(NCCCN)n2c1nc1ccccc12
- Ratio IC50 [1]: 6.9
- IC50 (Plasmodium falciparum [2]): 0.63 µM
- IC50 (L6; Rattus norvegicus, L6, 72 h): 4.33 µM
- logD [3]: 1.46

SMILES: CN(C)CCCNc1cc(-c2ccc(C(F)(F)F)cc2)c(C#N)c2nc3ccccc3n12.Cl.Cl
- IC50 (Plasmodium falciparum [4]): 0.26 µM
- IC50 (L6; l6): 21.1 µM
- Activity (Plasmodium berghei): 30.7%

SMILES: CCN(CC)CCNc1cc(-c2ccccc2)c(C#N)c2nc3ccccc3n12
- Ratio IC50 [1]: 108
- IC50 (Plasmodium falciparum [2]): 1.11 µM
- IC50 (L6; Rattus norvegicus, L6, 72 h): 120 µM
- logD [3]: 1.89

SMILES: CCN(CC)CCNc1cc(-c2ccc(F)cc2)c(C#N)c2nc3ccccc3n12
- Ratio IC50 [1]: 226
- IC50 (Plasmodium falciparum [2]): 0.25 µM
- IC50 (L6; Rattus norvegicus, L6, 72 h): 56.5 µM
- logD [3]: 1.9

SMILES: CN(C)CCCNc1cc(-c2cccc(F)c2)c(C#N)c2nc3ccccc3n12
- Ratio IC50 [1]: 29
- IC50 (Plasmodium falciparum [2]): 0.53 µM
- IC50 (L6; Rattus norvegicus, L6, 72 h): 15.4 µM
- logD [3]: 1.54

SMILES: CN(C)CCNc1cc(-c2ccc(F)cc2)c(C#N)c2nc3ccccc3n12
- Ratio IC50 [1]: 70
- IC50 (Plasmodium falciparum [2]): 0.28 µM
- IC50 (L6; Rattus norvegicus, L6, 72 h): 19.6 µM
- logD [3]: 1.41

SMILES: N#Cc1c(-c2cccc(C(F)(F)F)c2)cc(NCCN)n2c1nc1ccccc12
- Ratio IC50 [1]: 11.7
- IC50 (Plasmodium falciparum [2]): 1 µM
- IC50 (L6; Rattus norvegicus, L6, 72 h): 11.7 µM
- logD [3]: 1.8

SMILES: CN(C)CCCNc1cc(-c2cccc(C(F)(F)F)c2)c(C#N)c2nc3ccccc3n12
- Ratio IC50 [1]: 474
- IC50 (Plasmodium falciparum [2]): 0.38 µM
- IC50 (L6; Rattus norvegicus, L6, 72 h): 180 µM
- logD [3]: 2.49

SMILES: CCN(CC)CCCNc1cc(-c2ccc(C(F)(F)F)cc2)c(C#N)c2nc3ccccc3n12
- Ratio IC50 [1]: >633
- IC50 (Plasmodium falciparum [2]): 0.3 µM
- IC50 (L6; l6): > 190 µM
- logD [3]: 2.97

SMILES: CN(C)CCNc1cc(-c2cccc(F)c2)c(C#N)c2nc3ccccc3n12
- Ratio IC50 [1]: 7
- IC50 (Plasmodium falciparum [2]): 0.84 µM
- IC50 (L6; Rattus norvegicus, L6, 72 h): 5.88 µM
- logD [3]: 1.5

SMILES: CN(C)CCNc1cc(C(F)(F)F)c(C#N)c2nc3ccccc3n12
- Ratio IC50 [1]: 13
- IC50 (Plasmodium falciparum [2]): 3.43 µM
- IC50 (L6; Rattus norvegicus, L6, 72 h): 44.7 µM
- logD [3]: 2.01

SMILES: CN(C)CCNc1cc(-c2ccc(Cl)cc2)c(C#N)c2nc3ccccc3n12
- Ratio IC50 [1]: 62.9
- IC50 (Plasmodium falciparum [2]): 0.31 µM
- IC50 (L6; Rattus norvegicus, L6, 72 h): 19.5 µM
- logD [3]: 2.05

SMILES: CCN(CC)CCNc1cc(C(F)(F)F)c(C#N)c2nc3ccccc3n12
- Ratio IC50 [1]: 63.7
- IC50 (Plasmodium falciparum [2]): 1.9 µM
- IC50 (L6; Rattus norvegicus, L6, 72 h): 121 µM
- logD [3]: 2.51

SMILES: CCN(CC)CCCNc1cc(C(F)(F)F)c(C#N)c2nc3ccccc3n12
- Ratio IC50 [1]: 42.2
- IC50 (Plasmodium falciparum [2]): 2.08 µM
- IC50 (L6; Rattus norvegicus, L6, 72 h): 87.8 µM
- logD [3]: 2.54

SMILES: CN(C)CCCNc1cc(-c2ccccc2)c(C#N)c2nc3ccccc3n12
- Ratio IC50 [1]: 71
- IC50 (Plasmodium falciparum [2]): 1.52 µM
- IC50 (L6; Rattus norvegicus, L6, 72 h): 108 µM
- logD [3]: 1.52

SMILES: CN(C)CCNc1cc(-c2ccc(C(F)(F)F)cc2)c(C#N)c2nc3ccccc3n12.Cl
- IC50 (Plasmodium falciparum [4]): 0.1 µM
- IC50 (L6; l6): 147 µM
- Activity (Plasmodium berghei): 0%

SMILES: N#Cc1c(-c2ccccc2)cc(NCCCN)n2c1nc1ccccc12
- Ratio IC50 [1]: 5.2
- IC50 (Plasmodium falciparum [2]): 2.27 µM
- IC50 (L6; Rattus norvegicus, L6, 72 h): 11.9 µM
- logD [3]: 0.49

SMILES: CN(C)CCCNc1cc(-c2ccc(C(F)(F)F)cc2)c(C#N)c2nc3ccccc3n12
- Ratio IC50 [1]: 455
- IC50 (Plasmodium falciparum [2]): 0.44 µM
- IC50 (L6; Rattus norvegicus, L6, 72 h): > 200 µM
- logD [3]: 2.49

SMILES: N#Cc1c(-c2ccc(C(F)(F)F)cc2)cc(NCCCN)n2c1nc1ccccc12
- Ratio IC50 [1]: 6.8
- IC50 (Plasmodium falciparum [2]): 0.92 µM
- IC50 (L6; Rattus norvegicus, L6, 72 h): 6.26 µM
- logD [3]: 1.46

SMILES: CN(C)CCCNc1cc(C(F)(F)F)c(C#N)c2nc3ccccc3n12
- Ratio IC50 [1]: 52.5
- IC50 (Plasmodium falciparum [2]): 3.16 µM
- IC50 (L6; Rattus norvegicus, L6, 72 h): 166 µM
- logD [3]: 2.06

SMILES: CCN(CC)CCCNc1cc(-c2ccc(Cl)cc2)c(C#N)c2nc3ccccc3n12
- Ratio IC50 [1]: 287
- IC50 (Plasmodium falciparum [2]): 0.17 µM
- IC50 (L6; Rattus norvegicus, L6, 72 h): 48.8 µM
- logD [3]: 2.57

SMILES: CN(C)CCCNc1cc(-c2ccc(Cl)cc2)c(C#N)c2nc3ccccc3n12
- Ratio IC50 [1]: >1000
- IC50 (Plasmodium falciparum [2]): 0.21 µM
- IC50 (L6; Rattus norvegicus, L6, 72 h): > 210 µM
- logD [3]: 2.09

SMILES: N#Cc1c(C(F)(F)F)cc(NCCN)n2c1nc1ccccc12
- Ratio IC50 [1]: 13
- IC50 (Plasmodium falciparum [2]): 3.09 µM
- IC50 (L6; Rattus norvegicus, L6, 72 h): 40.1 µM
- logD [3]: 1.37

SMILES: N#Cc1c(-c2ccc(C(F)(F)F)cc2)cc(NCCN2CCCC2)n2c1nc1ccccc12
- Ratio IC50 [1]: 2751
- IC50 (Plasmodium falciparum [2]): 0.053 µM
- IC50 (L6; Rattus norvegicus, L6, 72 h): 146 µM
- logD [3]: 2.58

SMILES: CCN(CC)CCCNc1cc(-c2cccc(C(F)(F)F)c2)c(C#N)c2nc3ccccc3n12
- Ratio IC50 [1]: 128
- IC50 (Plasmodium falciparum [2]): 0.19 µM
- IC50 (L6; l6): 24.3 µM
- logD [3]: 2.97

SMILES: CCN(CC)CCNc1cc(-c2cccc(F)c2)c(C#N)c2nc3ccccc3n12
- Ratio IC50 [1]: 225
- IC50 (Plasmodium falciparum [2]): 0.55 µM
- IC50 (L6; Rattus norvegicus, L6, 72 h): 124 µM
- logD [3]: 1.99
